Data published in patent US8026252B2 (priority 2005, dated 2011).

System: κ opioid receptors
Assay: not given
Conditions: background, U.S. Pat. No. 6,784,187; cited from earlier work

Compound	affinity for κ opioid receptors
C[C@H]1C2Cc3ccc(C(N)=O)cc3[C@@]1(C)CCN2CC1CC1 [Example 8-CAC, 8-carboxamidocyclazocine]	high affinity

System: guinea pig μ receptors
Assay: not given
Conditions: background, U.S. Pat. No. 6,784,187; cited from earlier work

Compound	affinity for μ opioid receptors
C[C@H]1C2Cc3ccc(C(N)=O)cc3[C@@]1(C)CCN2CC1CC1 [Example 8-CAC, 8-carboxamidocyclazocine]	high affinity

System: mice
Assay: not given
Conditions: 1 mg/kg ip in mice; cited from earlier work

Compound	duration of action [h]
C[C@H]1C2Cc3ccc(C(N)=O)cc3[C@@]1(C)CCN2CC1CC1 [Example 8-CAC, 8-carboxamidocyclazocine]	15
C[C@H]1[C@H]2Cc3ccc(O)cc3[C@]1(C)CCN2CC1CC1 [cyclazocine]	2

Same assay, conditions: background; cited from earlier work

Compound	antinociception activity in vivo
C[C@H]1C2Cc3ccc(C(N)=O)cc3[C@@]1(C)CCN2CC1CC1 [Example 8-CAC, 8-carboxamidocyclazocine]	high antinociception activity

Target: T1, human μ opioid receptor (Homo sapiens, UniProt P35372)
T1 construct: expressed in transfected cells
T1 sequence (P35372 whole entry): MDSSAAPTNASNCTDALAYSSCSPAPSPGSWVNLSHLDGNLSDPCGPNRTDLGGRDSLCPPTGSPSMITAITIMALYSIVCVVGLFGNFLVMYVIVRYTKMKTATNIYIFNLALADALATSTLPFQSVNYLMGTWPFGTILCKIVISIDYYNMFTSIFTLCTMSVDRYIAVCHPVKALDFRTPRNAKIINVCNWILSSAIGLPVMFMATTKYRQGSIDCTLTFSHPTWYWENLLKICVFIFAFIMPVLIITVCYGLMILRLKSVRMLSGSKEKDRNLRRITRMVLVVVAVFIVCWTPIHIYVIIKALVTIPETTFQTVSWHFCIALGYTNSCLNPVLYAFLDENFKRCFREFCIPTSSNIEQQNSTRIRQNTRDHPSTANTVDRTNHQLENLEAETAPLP
Assay: biochemical
Format: binding
Conditions: [3H]DAMGO (μ)

Compound	Ki [nM]
CC[C@@]12CCN(CC3CC3)C(C(=O)c3ccc(C(=O)NCCc4ccc(-c5ccccc5)cc4)cc31)[C@@H]2C (mixture of isomers) [Example 21, (±)-3-(Cyclopropylmethyl)-6-ethyl-1,2,3,4,5,6-hexaahydro-cis-11-methyl-N-(2-[1,1′-biphenyl]-4-ylethyl)-1-oxo-2,6-methano-3-benzazocine-8-carboxamide]	4.9 ± 0.2
CC1C2Cc3ccc(C(=O)NCCCCCc4ccccc4)cc3C1(C)CCN2CC1CC1 (racemic) [Example 61]	1.7 ± 0.15
CC1C2Cc3ccc(C(=O)NCCc4cccnc4)cc3C1(C)CCN2CC1CC1 (racemic) [Example 69]	120 ± 3.6
CC(NC(=O)c1ccc2c(c1)C1(C)CCN(CC3CC3)C(C2)C1C)c1ccccc1 (single isomer, unassigned) [Example 67]	28 ± 1.4
CC(NC(=O)c1ccc2c(c1)C1(C)CCN(CC3CC3)C(C2)C1C)c1ccccc1 (single isomer, unassigned) [Example 68]	62 ± 3.3
O=C(NCCc1ccc(-c2ccccc2)cc1)c1ccc2c3c1OC1C(=O)CCC4(O)C(C2)N(CC2CC2)CCC314 (single isomer, unassigned; (-)) [Example 71, (−)-Q-naltrexone]	1.4 ± 0.12
CC1C2C(=O)c3ccc(C(=O)NCCc4ccc(-c5ccccc5)cc4)cc3C1(C)CCN2CC1CC1 (stereo not drawn) [Example 20]	3.1 ± 1.3
CC(CNC(=O)c1ccc2c(c1)[C@@]1(C)CCN(CC3CC3)C(C2)[C@@H]1C)c1ccc(-c2ccccc2)cc1 (stereo partly drawn) [Example 46]	18 ± 1.1
C[C@H]1C2Cc3ccc(C(=O)NCCc4ccc(-c5cccc(Cl)c5)cc4)cc3[C@@]1(C)CCN2CC1CC1 [Example 50]	0.56 ± 0.087
C[C@H]1C2Cc3ccc(C(=O)NCCc4ccc(C(=O)NCCc5ccc(Br)cc5)cc4)cc3[C@@]1(C)CCN2CC1CC1 [Example 53]	1.5 ± 0.18
C[C@H]1C2Cc3ccc(C(=O)NCCCCc4ccccc4)cc3[C@@]1(C)CCN2CC1CC1 [Example 60]	4.3 ± 0.42
O=C(NCCc1ccc(-c2ccccc2)cc1)c1ccc2c(c1)[C@@]13CCCC[C@@]1(O)[C@@H](C2)N(CC1CCC1)CC3 [Example 79, (−)-Q-butorphanol]	0.32 ± 0.048
O=C1CC[C@@]2(O)[C@H]3Cc4ccc(C(=O)NCCc5ccc(-c6ccccc6)cc5)c(O)c4[C@@]2(CCN3CC2CC2)C1 [Example 81, Q-naltrexone ring opened]	0.71 ± 0.091

Same assay, conditions: read-out: [3H]DAMGO (μ)

Compound	Ki [nM]
CC1[C@@H]2Cc3ccc(C(=O)NCCc4ccccc4)cc3[C@@]1(C)CCN2CC1CC1 (mixture of isomers) [Example 11, (±)-3-(Cyclopropylmethyl)-1,2,3,4,5,6-hexahydro-cis-6,11-dimethyl-N-(2-phenylethyl)-2,6-methano-3-benzazocine-8-carboxamide]	3.5 ± 0.27
CC1[C@@H]2Cc3ccc(C(=O)NCCCc4ccccc4)cc3[C@@]1(C)CCN2CC1CC1 (mixture of isomers) [Example 12, (±)-3-(Cyclopropylmethyl)-1,2,3,4,5,6-hexahydro-cis-6,11-dimethyl-N-(3-phenylpropyl)-2,6-methano-3-benzazocine-8-carboxamide]	2.5 ± 0.27
CC1[C@@H]2Cc3ccc(C(=O)NCCc4cccc(-c5ccccc5)c4)cc3[C@@]1(C)CCN2CC1CC1 (mixture of isomers) [Example 25, (±)-3-(Cyclopropylmethyl)-1,2,3,4,5,6-hexahydro-cis-6,11-dimethyl-N-(2-(biphenyl-3-yl)ethyl)-2,6-methano-3-benzazocine-8-carboxamide]	0.95 ± 0.15
CC1[C@@H]2Cc3ccc(C(=O)NCCc4ccccc4-c4ccccc4)cc3[C@@]1(C)CCN2CC1CC1 (mixture of isomers) [Example 26, (±)-3-(Cyclopropylmethyl)-1,2,3,4,5,6-hexahydro-cis-6,11-dimethyl-N-(2-(biphenyl-2-yl)ethyl)-2,6-methano-3-benzazocine-8-carboxamide]	6.7 ± 0.49
CC1[C@@H]2Cc3ccc(C(=O)NCCc4ccc(Cc5ccccc5)cc4)cc3[C@@]1(C)CCN2CC1CC1 (mixture of isomers) [Example 27, (±)-3-(Cyclopropylmethyl)-1,2,3,4,5,6-hexahydro-cis-6,11-dimethyl-N-(4-benzylphenethyl)-2,6-methano-3-benzazocine-8-carboxamide]	0.23 ± 0.032
CC1[C@@H]2Cc3ccc(C(=O)NCCc4ccc(Br)cc4)cc3[C@@]1(C)CCN2CC1CC1 (mixture of isomers) [Example 29, (±)-3-(Cyclopropylmethyl)-1,2,3,4,5,6-hexahydro-cis-6,11-dimethyl-N-(4-bromophenethyl)-2,6-methano-3-benzazocine-8-carboxamide]	2.4 ± 0.33
CC1[C@@H]2Cc3ccc(C(=O)NCCc4cccc(Br)c4)cc3[C@@]1(C)CCN2CC1CC1 (mixture of isomers) [Example 30, (±)-3-(Cyclopropylmethyl)-1,2,3,4,5,6-hexahydro-cis-6,11-dimethyl-N-(3-bromophenethyl)-2,6-methano-3-benzazocine-8-carboxamide]	0.35 ± 0.021
CC1[C@@H]2Cc3ccc(C(=O)NCCc4ccc(Oc5ccccc5)cc4)cc3[C@@]1(C)CCN2CC1CC1 (mixture of isomers) [Example 33, (±)-3-(Cyclopropylmethyl)-1,2,3,4,5,6-hexahydro-cis-6,11-dimethyl-N-(4-phenoxyphenethyl)-2,6-methano-3-benzazocine-8-carboxamide]	0.059 ± 0.017
CC1[C@@H]2Cc3ccc(C(=O)NCCc4cccc(Oc5ccccc5)c4)cc3[C@@]1(C)CCN2CC1CC1 (mixture of isomers) [Example 34, (±)-3-(Cyclopropylmethyl)-1,2,3,4,5,6-hexahydro-cis-6,11-dimethyl-N-(3-phenoxyphenethyl)-2,6-methano-3-benzazocine-8-carboxamide]	0.54 ± 0.16
CC1[C@@H]2Cc3ccc(C(=O)NCCc4ccccc4Oc4ccccc4)cc3[C@@]1(C)CCN2CC1CC1 (mixture of isomers) [Example 35, (±)-3-(Cyclopropylmethyl)-1,2,3,4,5,6-hexahydro-cis-6,11-dimethyl-N-(2-phenoxyphenethyl)-2,6-methano-3-benzazocine-8-carboxamide]	0.63 ± 0.09
CC1[C@@H]2Cc3ccc(C(=O)NCCc4ccc5ccccc5c4)cc3[C@@]1(C)CCN2CC1CC1 (mixture of isomers) [Example 37, (±)-3-(Cyclopropylmethyl)-1,2,3,4,5,6-hexahydro-cis-6,11-dimethyl-N-(2-(naphthalen-2-yl)ethyl)-2,6-methano-3-benzazocine-8-carboxamide]	0.18 ± 0.009
CC1[C@@H]2Cc3ccc(C(=O)NCCCc4ccc5ccccc5c4)cc3[C@@]1(C)CCN2CC1CC1 (mixture of isomers) [Example 38, (±)-3-(Cyclopropylmethyl)-1,2,3,4,5,6-hexahydro-cis-6,11-dimethyl-N-(3-(naphthalen-2-yl)propyl)-2,6-methano-3-benzazocine-8-carboxamide]	1.9 ± 0.19
CC1[C@@H]2Cc3ccc(C(=O)NCCc4cccc5ccccc45)cc3[C@@]1(C)CCN2CC1CC1 (mixture of isomers) [Example 40, (±)-3-(Cyclopropylmethyl)-1,2,3,4,5,6-hexahydro-cis-6,11-dimethyl-N-(2-(naphthalen-1-yl)ethyl)-2,6-methano-3-benzazocine-8-carboxamide]	4.2 ± 0.13
CC1[C@@H]2Cc3ccc(C(=O)NCCCc4ccc5ccccc5c4)cc3[C@@]1(C)CCN2CC1CC1 (mixture of isomers) [Example 41, (±)-3-(Cyclopropylmethyl)-1,2,3,4,5,6-hexahydro-cis-6,11-dimethyl-N-(3-(naphthalen-2-yl)propyl)-2,6-methano-3-benzazocine-8-carboxamide]	2.4 ± 0.45
CC1[C@@H]2Cc3ccc(C(=O)NCCc4ccccc4Br)cc3[C@@]1(C)CCN2CC1CC1 (mixture of isomers) [Example 52, (±)-3-(Cyclopropylmethyl)-1,2,3,4,5,6-hexahydro-cis-6,11-dimethyl-N-(2-bromophenethyl)-2,6-methano-3-benzazocine-8-carboxamide]	4 ± 0.36
COc1ccc(-c2ccc(CCNC(=O)c3ccc4c(c3)[C@@]3(C)CCN(CC5CC5)C(C4)[C@@H]3C)cc2)cc1 [Example 48]	0.084 ± 0.012
C[C@H]1C2Cc3ccc(C(=O)NCCc4ccc(-c5ccc(Cl)cc5)cc4)cc3[C@@]1(C)CCN2CC1CC1 [Example 49]	0.2 ± 0.038
Cc1ccc(-c2ccc(CCNC(=O)c3ccc4c(c3)[C@@]3(C)CCN(CC5CC5)C(C4)[C@@H]3C)cc2)cc1 [Example 51]	0.29 ± 0.075
